Source: patent publication US20170304369A1, “METHODS OF DIFFERENTIATING STEM CELLS INTO LIVER CELL LINEAGES” (Agency for Science, Technology and Research, priority 2014, published 2017)
Entries after “also recorded” stand apart in the source; their conditions may differ. Like-named read-outs stand apart in the source and are kept apart here.

What was measured:
[1] = test system: adult human hepatocytes; assay: Adult human primary hepatocytes in vitro culture, liver gene expression after 2 days; format: cell-based
Source text: RNA was extracted using Zymo RNA extraction kit. RT-quantitative PCR was used to quantify gene expression. […]
The signals that promote hepatocyte specification and/or maturation were considered to also ameliorate such loss of liver maturity and gene expression during in vitro culture. Thus, the signaling pathways that appear to be dysregulated were investigated including Notch, TGFb, Wnt, as well as other major signaling pathways including estrogen, BMP, FGF, PKA/cAMP pathways, in order to determine the effects on liver genes after 2 days.

[2] = test system: hPSC-derived LB cells; assay: Hepatic progenitor specification from hPSC-derived LB cells (days 7-12), liver gene expression; details: for subsequent expression of liver genes: brief treatment of LB cells for 2 days
Description: (§1) mTeSR1-grown hPSCs were cultured and differentiated as follows: • a) hPSCs cells were seeded at 1:12 as small clumps using Accutase (Millipore, Cat#SCR005) and Geltrex (Lifetech, Cat#A1413302). • b) Anterior Primitive Streak (day 1) was specified using Activin A (100 ng/ml), CHIR99021 (3 μM), PI-103 (50 nM) and Fgf2 (10 ng/ml) in serumless CDM2 basal medium for 24 hr. • c) Activin A (100 ng/ml) and DM3189 (250 nM) and PI-103 (50 nM) were added in the same basal medium for 24 hr to induce Definitive Endoderm (DE) (day 2). • d) DE was then patterned into PFG by using A83-01 (1 μM), RA (2 μM), BMP4 (30 ng/ml) and Fgf2 (10 ng/ml) in CDM KOSR basal media for another 24 hrs. • e) PFG was further differentiated to LB progenitors using Activin A (100 ng/ml), 8-bromo-CAMP (1 mM) and BMP4 (10 ng/ml) in CDM KOSR basal media for 3 days (day 4 to 6). • f) LB progenitors were treated with BMP4 (10 ng/ml), Oncostatin M (10 ng/ml), Dexamethasone ([…]), DAPT, C59 (1 μM) or RO4919097 (2 μM), forskolin ([…]), human recombinant insulin (10 μg/ml), ascorbic acid-2 phosphate (200 μg/ml), L-gluthathione ([…]) and amino acid concentrate and in IMDM/F12 media for the next 6 days (day 7 to 12) to induce hepatic progenitors. • g) Hepatic progenitors were treated with Dexamethasone (10 μM), RO4929097 (2 μM) or DAPT (10 μM), Forskolin (10 μM), human recombinant insulin (10 μg/ml), ascorbic acid-2 phosphate (200 μg/ml) in IMDM/F12 media for 6 days (day 13 to 18) to generate hepatocyte-like cells. Intra-Splenic Transplantation into FRG^−/− Mice
(§2) RNA was extracted using Zymo RNA extraction kit. RT-quantitative PCR was used to quantify gene expression. Primer sequences were designed by NCBI Primer Tool and primer specificity and linearity was tested before usage for gene expression analyses.
To identify the signals that regulate the progression of the LB progenitors from an ALB- to a more differentiated ALB+ state, multiple signaling pathways were systematically screened for their effects on ALB expression (including FGF, WNT, Notch, HGF, cAMP/PKA, TGFβ, and BMP).

[3] = test system: PFG cells; assay: Liver bud (LB) specification from posterior foregut, days 4-6, gene expression; format: cell-based, human; details: for subsequent expression of ALB: treatment during LB specification, then hepatic specification medium; for LB gene expression / expansion: addition at the LB specification stage
Description: as §1, §2
The signaling pathways, including Retinoic, Nodal/Activin, Bmp, PKA, FGF and Wnt signaling, were explored to determine if they could directly regulate LB specification.

[4] = test system: hepatic progenitors; assay: Treatment of hepatic progenitors (days 13-18), hepatocyte-like cell, periportal versus perivenous gene expression; format: cell-based, human
[5] = test system: hPSC-derived DE; assay: Foregut specification: treatment of hPSC-derived DE (day 3), downstream gene expression by RT-qPCR; format: cell-based, human
Source text: RT-quantitative PCR was used to quantify gene expression. […] During liver development, populations of definitive endoderm cells are first patterned along the anterior-posterior axis to form either the foregut or mid/hindgut. In the present invention the effects of signaling inhibition on the developmental competence of the foregut cells to give rise to the liver bud (LB) cells was examined. Competence is defined as the capacity of one stem cell or progenitor cell to differentiate into its daughter cell type. For example, the posterior foregut is competent when it could give rise to its daughter cell types such as the pancreatic endoderm and LB cells.

[6] = on removal of the component from a cocktail of signaling factors
[7] = subtraction from BCDEFV cocktail, day 10
[8] = 24 h during foregut specification

For `Nc1ncnc2c1nc(Br)n2[C@@H]1O[C@@H]2COP(=O)(O)O[C@H]2[C@H]1O` [8-bromoCAMP], the periportal gene expression [1] was “promote”, the “perivenous gene expression (e.g. members of the CYP1, CYP2 and CYP3 families)” value [1] was “reducing” and the “expression of cytochrome genes” value [1, 6] was “increased”. The “expression of functional liver enzymes such as FAH, PAH, HGD, HPD, TAT, CPS1, CYP3A4” value ([2]; days 9-12) was “enhances”, the “hepatic progenitor marker ALB expression” value ([2]; days 9-12) was “promotes” and the “expression of LB markers including AFP, CEBPA, HNF6, HNF1B, PROX1, TBX3 and HNF4A” value ([3]; during LB specification) was “significantly increase”.

`CC1=C(/C=C/C(C)=C\C=C\C(C)=C\C(=O)O)C(C)(C)CCC1` [9-Cis-RA, 3,7-Dimethyl-9-(2,6,6-trimethyl-1-cyclohexen-1-yl)nona-2E,4E,6Z,8E-tetraenoic acid] was tested, and the “expression of CYP3A5, CYP3A7, CYP3A4, CYP2D1, CYP2E1, and CYP1A1” value [4] was “enhance” and the “expression of periportal genes such as ARG1, OTC, ASL1 and CPS1” value [4] was “reduces”.

In the case of `CC(=N)NCc1cccc(CN)c1.Cl.Cl` [1400 W dihydrochloride, N-[[3-(Aminomethyl)phenyl]methyl]-ethanimidamide dihydrochloride], the “expression of FAH, PAH, HGD, TAT, CPS1, ARG1, FBA, FBB and FBG” value ([4]; PKG antagonists) is reported as “upregulate”.

`Cc1cccc(-c2nn(C(=S)Nc3ccccc3)cc2-c2ccnc3ccccc23)n1` [A83-01, 3-(6-Methyl-2-pyridinyl)-N-phenyl-4-(4-quinolinyl)-1H-pyrazole-1-carbothioamide] was tested, and the “expression of CYP1A1, CYP1A2, CYP2C19, CYP2C9, CYP3A4, CYP3A5, CYP3A7 and CYP7A1” value ([1]; TGFβ inhibition) was “increased” and the “subsequent expression of ALB” value [3] was “reduces”.

With `O=C1O[C@H]([C@@H](O)CO)C(O)=C1OP(=O)(O)O` [AA2P, L-ascorbic acid 2-phosphate] the “expression of PAH, HGD, HPD, TAT, MAI, FAH, CYP3A4, ALB and CPS1” value [2] was “enhancement” and the liver maturation ([2]; days 7 to 12 and days 13 to 16) was “significantly promoted”.

`c1ccc2c(-c3cnn4cc(-c5ccc(N6CCNCC6)cc5)cnc34)ccnc2c1` [BM3189] was tested, and the ALB expression ([2]; added to hPSC-derived LB cells) was “decreased”.

With `Cc1cnc(-c2cnc(NCCNc3ccc(C#N)cn3)nc2-c2ccc(Cl)cc2Cl)[nH]1` [CHIR99201, 6-[[2-[[4-(2,4-dichlorophenyl)-5-(5-methyl-1H-imidazol-2-yl)-2pyrimidinyl]amino]ethyl]amino]-3-pyridinecarbonitrile] the “GLT and GS expression” value [1, 6] was “decrease”, the “expression of periportal genes like ARG1, SERDH, CPS1” value [1, 6] was “increased” and the ALB expression [2, 7] was “inhibits”. For the same molecule, the “expansion and self-renewal of LB progenitors” value [3] was “enhance”, the LB gene expression [3] was “higher” and the expansion [3] was “promotes”.

For `C[C@H](NC(=O)Cc1cc(F)cc(F)c1)C(=O)NC(C(=O)OC(C)(C)C)c1ccccc1` (some centres unmarked) [DAPT], the “expression of the majority of cytochrome enzymes (CYP1A1, CYP1A2, CYP2C19, CYP2C9, CYP2D6, CYP2E1, CYP3A4, CYP3A5, CYP3A7, CYP7A1)” value [1] was “upregulated”, the SOX9 expression ([2]; Notch inhibition) was “reducing” and the ALB expression ([2]; added to hPSC-derived LB cells) was “enhance”.

With `C=C[C@@]1(C)CC(=O)[C@]2(O)[C@@]3(C)[C@@H](O)CCC(C)(C)[C@@H]3[C@H](O)[C@H](OC(C)=O)[C@@]2(C)O1` [Forskolin] the “expression of functional liver enzymes such as FAH, PAH, HGD, HPD, TAT, CPS1, CYP3A4” value [2] was “enhances”.

In the case of `CC(=O)Nc1cccc(-n2c(=O)n(C3CC3)c(=O)c3c(Nc4ccc(I)cc4F)n(C)c(=O)c(C)c32)c1` [GSK1120212], the “subsequent expression of liver genes” value [2] is reported as “higher”.

`Cc1ccc2nc(NC(=O)CSc3nc4c(c(=O)n3-c3ccccc3)SCC4)sc2c1` [IWP2, N-(6-Methyl-2-benzothiazolyl)-2-[(3,4,6,7-tetrahydro-4-oxo-3-phenylthieno[3,2-d]pyrimidin-2-yl)thio]-acetamide] was tested, and the “downstream LB gene expression (AFP, CEBPA, TBX3, HNF1B)” value [5, 8] was “severely reduces”, the “expression of MHG markers CDX2 and EVX1” value [5, 8] was “reduces” and the “HNF6, PROX1 and HEX expression” value ([5]; Wnt inhibition during foregut specification) was “upregulated”.

For `CCN(CC)CCCCNc1ncc2cc(-c3cc(OC)cc(OC)c3)c(NC(=O)NC(C)(C)C)nc2n1` [PD173074, N-[2-[[4-(Diethylamino)butyl]amino]-6-(3,5-dimethoxyphenyl)pyrido[2,3-d]pyrimidin-7-yl]-N′-(1,1-dimethylethyl)urea], the “subsequent expression of liver genes” value [2] was “higher”.

In the case of `O=C(NOC[C@H](O)CO)c1ccc(F)c(F)c1Nc1ccc(I)cc1F` [PD0325901, N-[(2R)-2,3-Dihydroxypropoxy]-3,4-difluoro-2-[(2-fluoro-4-iodophenyl)amino]-benzamide], the “LB gene expression (HNF1A, HNF6, PROX1, TBX3, HNF4A)” value ([3]; inhibition of FGF/MAPK signaling) is reported as “reduced”.

For `CC(C)(C(=O)NCC(F)(F)C(F)(F)F)C(=O)N[C@@H]1C(=O)Nc2ccccc2-c2ccccc21` [R04929097, Propanediamide, N1-[(7S)-6,7-dihydro-6-oxo-5H-dibenz[b,d]azepin-7-yl]-2,2-dimethyl-N3-(2,2,3,3,3-pentafluoropropyl)-], the “expression of the majority of cytochrome enzymes (CYP1A1, CYP1A2, CYP2C19, CYP2C9, CYP2D6, CYP2E1, CYP3A4, CYP3A5, CYP3A7, CYP7A1)” value [1] was “upregulated”, the SOX9 expression ([2]; Notch inhibition) was “reducing” and the ALB expression ([2]; added to hPSC-derived LB cells) was “enhance”.

`Nc1ncnc2c1ncn2[C@@H]1O[C@@H]2CO[P@@](O)(=S)O[C@H]2[C@H]1O` [RpCAMP] was tested, and the p450 cytochrome expression [1] was “promoted”.

For `Cc1cccc(-c2[nH]c(C(C)(C)C)nc2-c2ccc3c(c2)OCO3)n1` [SB505124, 2-[4-(1,3-Benzodioxol-5-yl)-2-(1,1-dimethylethyl)-1H-imidazol-5-yl]-6-methyl-pyridine], the “effect on the cytochrome expression compared with A83-01” value [1] was “stronger”, the “expression of CYP1A1, CYP1A2, CYP2C19, CYP2C9, CYP3A4, CYP3A5, CYP3A7 and CYP7A1” value [1] was “increased” and the “competence of hepatic progenitors to generate hepatocyte-like cells” value [2] was “reduces”. For the same molecule, the “expression of liver genes such as ALB, CYP3A4, CPS1, FAH, TAT, PAH, HGD, HPD and MAI” value [2] was “lower”, the “later functional liver gene expression of TAT, FAH, PAH, HGD, HPD, and MAI” value ([2]; brief treatment on days 7-8) was “higher” and the “subsequent expression of ALB” value [3] was “reduces”.

For `C[N+](C)(C)CCO.[Cl-]` [choline chloride], the “expression of ALB, FAH, PAH, TAT, CYP3A4, CYP3A7, AAT, THR, FBA, FBB, FBG and TBX3” value ([2]; higher levels of phospholipid precursor) was “increases”.

With `Nc1ncnc2c1ncn2[C@@H]1O[C@@H]2COP(O)(=S)O[C@H]2[C@H]1O` (some centres unmarked) [spCAMP] the periportal gene expression [1] was “promote” and the “perivenous gene expression (e.g. members of the CYP1, CYP2 and CYP3 families)” value [1] was “reducing”.

For FGF2: activator of FGF signaling, the “subsequent liver bud gene expression of CEBPA, HNF1A, HNF6, PROX1” value ([5]; provided to DE cells during foregut specification) was “increase”, the ALB expression ([2]; 20 ng/ml) was “reduction” and the SOX9 expression ([2]; 20 ng/ml) was “slightly increase”. For the same molecule, the ALB expression [2, 7] was “inhibits”, the “expansion and self-renewal of LB progenitors” value [3] was “enhance” and the “LB gene expression of HNF1A, HNF6, PROX1, TBX3, HNF4A, AFP, CEBPA, HNF1B” value ([3]; addition in CDM KOSR base media) was “did not benefit”.

HGF: Hepatocyte growth factor was tested, and the ALB expression ([2]; added to hPSC-derived LB cells) was “promotes”.

In the case of Wnt3A, the “perivenous xenobiotic gene expression (e.g. CYP3A4, CYP3A5 and CYP3A7)” value [1] is reported as “increased”, the LB gene expression [3] is reported as “higher” and the expansion [3] is reported as “promotes”.

B1: OSM: Oncostatin M (protein, UniProt P13725 26-221, looked up)
Oncostatin-M: AAIGSCSKEYRVLLGQLQKQTDLMQDTSRLLDPYIRIQGLDVPKLREHCRERPGAFPSEETLRGLGRRGFLQTLNATLGCVLHRLADLEQRLPKAQDLERSGLNIEDLEKLQMARPNILGLRNNIYCMAQLLDNSDTAEPTKAGRGASQPPTPTPASDAFQRKLEGCRFLHGYHRFMHSVGRVFSKWGESPNRSRR
For B1, the ALB expression ([2]; added to hPSC-derived LB cells) was “promoted”.

B2: BMP4: activator of BMP signaling (protein, UniProt P12644 293-408, looked up)
Bone morphogenetic protein 4: SPKHHSQRARKKNKNCRRHSLYVDFSDVGWNDWIVAPPGYQAFYCHGDCPFPLADHLNSTNHAIVQTLVNSVNSSIPKACCVPTELSAISMLYLDEYDKVVLKNYQEMVVEGCGCR
With B2 the “competence to generate LB cells” value ([5]; treatment during foregut specification) was “mildly enhanced”, the ALB expression ([2]; added to hPSC-derived LB cells) was “promote; also recorded: increased” and the LB specification [3] was “promotes”. The “dose that maximally induces expression of LB genes (HNF4A, PROX1, AFP, TBX3, HNF1B, HNF1A, HNF6, CEBPA)” value [3] was 30 to 40 ng/mL and the pancreatic specification [3] was “inhibited”.
